Like-named read-outs stand apart in the source and are kept apart here.
Columns and labels:
[1] = Acute toxicity by oral or intraperitoneal administration to ddY mice; conditions: mouse, in vivo, 7 days, Litchfield-Wilcoxon
Experimental: The acute toxicity of the compound according to this invention was determined by forced oral or intraperitoneal administration thereof to ddY mice.
To prepare each specimen to be administered, a predetermined amount of each compound shown in Table 1 was dissolved in a physiological saline or suspended in a 0.2% solution of carboxymethylcellulose in a physiological saline. Each specimen was administered orally to a ddY mouse via its stomach tube or injected intraperitoneally.

Sarcoma-180 = experiment: Activity against a transplantable cancer, Sarcoma-180; type: in vivo, ICR-JCL mice; conditions: 100 mg/Kg ip once a day for 10 days, starting 24 hrs. after inoculation
Experimental: Sarcoma-180 cells (1×10^6 cells) were inoculated subcutaneously into the back skin of each of ICR-JCL mice.
Chemotherapy was given intraperitoneally 24 hrs. after inoculation and performed once a day for 10 days. Each specimen to be administered was prepared by dissolving or suspending 30 mg of each compound according to this invention in 1 ml of a pysiological saline or in 1 ml of a 0.2% solution of carboxymethylcellulose in a physiological saline, respectively.
All the solutions and the suspensions thus prepared were injected at a volume of 0.1 ml as a single dose (100 mg/Kg).
The inhibition ratio (%) was calculated according to the following equation: […]
wherein T represents the mean weight of the tumor Sarcoma-180 in a tested group of mice; and C represents the mean weight of the tumor in a control group of mice.

[2] = tested on: synthesis of chondroitin sulfate (glycosaminoglycan) in epiphysial cartilages; experiment: Effect on synthesis of chondroitin sulfate (35S labelled glycosaminoglycan) in epiphysial cartilage; type: cell-based, chick embryos
Source text: In each Figure, the vertical axis denotes the amount of ^35 S labelled chondroitin sulfate (^35 S cpm×10^-4 /μmol·uronic acid), and the horizontal axis denotes the concentration (mM) of each xylopyranoside compound in the culture medium, and
x x: Total uptake amount of ^35 S labelled chondroitin sulfate,
: Amount of ^35 S labelled chondroitin sulfate in culture medium, and
: Amount of ^35 S labelled chondroitin sulfate in tissue.
Epiphysial cartilages were taken from chick embryos aged 12 days in the Tyrode's medium under ice-cooling, and excess tissues were removed therefrom. To 150 mg of cartilages corresponding to five embryos, 5 ml of BGJb [an entirely synthetic culture medium prepared according to a recipe of GIBCO (Grand Island Biological Company)] was added, followed by pre-incubation at a temperature of 37° C. After replacing the culture medium, further 1 ml of BGJb and 5μCi Na2^35 SO4 were added, and the culture system was kept at 37° C. for 3 hours. The culture medium was then replaced by a fresh chase medium containing no isotope. After keeping the culture system at 37° C. for 1 hour, the culture medium was separated from the tissues. To study the effects of the xyloside compound on the synthesis of glycosaminoglycan, the xyloside compound was added in the predetermined concentration to the pre-incubation and incubation media.
After the incubation, the labeled medium containing Na2^35 SO4 was combined with the chase medium. Pronase-P was added thereto in a 0.5 M tris-HCl buffer solution (pH 8.0), and the resulting mixture was digested at 50° C. for 16 hours. The digested reaction mixture was then subjected to gel filtration through a column (1.5×14 cm) packed with Bio-Gel P-2 (available from Bio-Rad Company) using a 0.2 M ammonium formate solution as elute. In this way, the Vo fraction was collected and was then freeze-dried to give crude glycosaminoglycan.
On the other hand, ice-cooled 4 M guanidine hydrochloride was added to the tissues which were previously separated from the culture medium. The resulting mixture was left to stand overnight at a temperature of -20° C., and then homogenized. The obtained homogenate was left to stand overnight at room temperature and centrifuged at a speed of 8,500 rpm to obtain a supernatant. To the obtained liquid, water was added in an amount threefold that of the supernatant. Then, a 95% ethyl alcohol (containing 1.3% of potassium acetate) was added to the resulting mixture in an amount threefold that of the mixture to obtain a precipitate. This procedure was repeated twice, and the combined precipitates were dried in a desiccator. The obtained precipitates were dissolved in a 0.02 M tris-HCl buffer solution (pH 8.0) and digested with Pronase-P (trade name) (available from Kaken Kagaku Co., Ltd.) in the manner similar to the culture medium described above, thereby obtaining crude glycosaminoglycan.
As the xyloside compound, conventional O-paranitrophenyl-β-D-xylopyranoside, and two compounds according to the present invention viz. C-n-butyl-β-D-xylopyranoside and C-ethyl-β-D-xylopyranoside were used. The effects of these xyloside compounds on the total amount of ^35 S labelled glycosaminoglycan synthesized (^35 S uptake amount), the amount thereof liberated to the culture medium and the amount thereof remaining in the tissues were as shown in FIGS. 1 to 3.

[3] = ip, intraperitoneal, read-out: LD50 (ip)

With `CC[C@@H]1OC[C@@H](O)[C@H](O)[C@H]1O` [C--Ethyl-β-D-xylopyranoside, C-Ethyl-β-D-xylopyranoside] the LD50 at 168 h [1, 3] was 2400 mg/kg, the LD50 at 168 h ([1]; oral, read-out: LD50 (po)) was 6900 mg/kg and the “I.R. (inhibition ratio, tumor weight)” value (Sarcoma-180) was 52.8%.
In the case of `CCCC[C@@H]1OC[C@@H](O)[C@H](O)[C@H]1O` [C--n-Butyl-β-D-xylopyranoside, C-n-Butyl-β-D-xylopyranoside], the LD50 at 168 h [1, 3] is reported as 2400 mg/kg, the LD50 at 168 h ([1]; oral, read-out: LD50 (po)) is reported as 5800 mg/kg and the “I.R. (inhibition ratio, tumor weight)” value (Sarcoma-180) is reported as 69.2%.
With `O=[N+]([O-])c1ccc(O[C@@H]2OC[C@@H](O)[C@H](O)[C@H]2O)cc1` [O-paranitrophenyl-β-D-xylopyranoside] the “Effectiveness as initiator for the synthesis of chondroitin sulfate” value [2] was “extremely effective”, the “35S uptake of glycosaminoglycan” value ([2]; 1 mM) was 40,800 count per minute (cpm) and the activity at 1000 µM ([2]; Gallus gallus, 1 mM, read-out: 35S labelled glycosaminoglycan liberated to the culture medium) was 95%. For the same compound, the fold induction at 1000 µM ([2]; Gallus gallus, 1 mM, read-out: 35S uptake of glycosaminoglycan relative to control) was 2.35, the activity at 1000 µM ([2]; Gallus gallus, 1 mM, read-out: Amount of 35S labelled glycosaminoglycan remaining in the tissues) was 11% and the “35S uptake of glycosaminoglycan, concentration dependence” value ([2]; concentration rising from 0.05 mM to 1.0 mM) was “increased”.

— patent US4446312A, “C-β-D-Xylopyranoside series compounds” (Seikagaku Kogyo Co., Ltd., priority 1980, dated 1984)
